Reference: ChEMBL document CHEMBL2150920, “Discovery of a potent and selective small molecule hGPR91 antagonist” (Bioorg Med Chem Lett, 2011)

Legend:
[1] = target: T1, Succinate receptor 1 (Homo sapiens, UniProt Q9BXA5); assay: Antagonist activity at human GPR91 receptor expressed in CHO-K1 cells co-expressing Galpha and Gqi5 G-protein assessed as inhibition of succinate-induced increase in intracellular calcium level by FLIPR assay; type: functional, cell-based
T1 sequence (Q9BXA5 whole entry): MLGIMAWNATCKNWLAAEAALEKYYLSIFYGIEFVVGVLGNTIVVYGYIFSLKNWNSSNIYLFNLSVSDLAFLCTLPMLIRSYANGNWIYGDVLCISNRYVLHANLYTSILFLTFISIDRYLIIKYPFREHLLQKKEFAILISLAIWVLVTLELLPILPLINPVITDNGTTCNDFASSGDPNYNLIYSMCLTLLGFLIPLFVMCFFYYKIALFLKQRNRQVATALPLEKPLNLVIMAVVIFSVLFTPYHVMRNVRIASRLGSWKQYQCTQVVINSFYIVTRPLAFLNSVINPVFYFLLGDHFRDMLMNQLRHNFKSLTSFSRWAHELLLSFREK

[2] = tested on: Liver microsomes; assay: Intrinsic clearance in rat liver microsomes preincubated for 5 mins before addition of NADPH measured after 30 mins by LC/MS/MS analysis; type: ADME, Microsome; settings: 0.5 h

| Structure (SMILES) | IC50 [1] | Intrinsic clearance [2] |
| --- | --- | --- |
| FC(F)(F)c1cccc(-c2ccc(-c3nnc(CCCc4ccc5cccnc5n4)o3)cc2)c1 | 200 nM | 0.3 nmol/min/mg |
| Cc1cc(-c2ccc(CNC(=O)CCCc3ccc4cccnc4n3)cc2)ccc1Cl | 300 nM |  |
| O=C(CCCc1ccc2cccnc2n1)NCc1ncc(-c2ccc(F)c(C(F)(F)F)c2)cn1 | 200 nM |  |
| Fc1ccc(-c2ccc(-c3nnc(CCCc4ccc5cccnc5n4)o3)cc2)cc1Cl | 100 nM | 0.2 nmol/min/mg |
| O=C(CCCc1ccc2cccnc2n1)NCc1nnc(-c2ccc(F)c(C(F)(F)F)c2)o1 | 1000 nM |  |
| Clc1ccc(-c2nnc(CCCCc3ccc4cccnc4n3)o2)cc1 | > 3000 nM |  |
| O=C(CCCc1ccc2cccnc2n1)NCc1cnn(-c2ccc(F)c(C(F)(F)F)c2)c1 | 210 nM | 0.18 nmol/min/mg |
| Fc1ccc(-c2nnc(CCCCc3ccc4cccnc4n3)o2)cc1C(F)(F)F | 2000 nM | 0.16 nmol/min/mg |
| FC(F)(F)c1ccc(-c2nnc(CCCCc3ccc4cccnc4n3)o2)cc1 | 3000 nM | 0.07 nmol/min/mg |
| O=C(CCCc1ccc2cccnc2n1)NCc1ccc(-c2cccc(OC(F)(F)F)c2)cc1 | 500 nM | 0.2 nmol/min/mg |
| Fc1ccc(-c2nnc(CCCCc3ccc4cccnc4n3)o2)cc1OC(F)(F)F | 4000 nM |  |
| O=C(CCCc1ccc2cccnc2n1)NCc1ccc(-c2ccc(F)c(C(F)(F)F)c2)nn1 | 720 nM |  |
| O=C(CCCc1ccc2cccnc2n1)NCc1nc(-c2cccc(Cl)c2)cs1 | 300 nM | 0.18 nmol/min/mg |
| Clc1cccc(-c2ccc(-c3nnc(CCCc4ccc5cccnc5n4)s3)cc2)c1 | 3000 nM |  |
| Fc1ccc(-c2ccc(-c3nnc(CCCc4ccc5cccnc5n4)[nH]3)cc2)cc1Cl | 1000 nM | 0.14 nmol/min/mg |
| FC(F)(F)Oc1ccc(-c2nnc(CCCCc3ccc4cccnc4n3)o2)cc1 | 3000 nM |  |
| O=C(CCCc1ccc2cccnc2n1)NCc1nnc(-c2ccc(F)c(C(F)(F)F)c2)s1 | 270 nM |  |

Molecules with a lower IC50 [1], results first:

| IC50 [1] | Intrinsic clearance [2] | Structure (SMILES) |
| --- | --- | --- |
| 90 nM | 0.11 nmol/min/mg | O=C(CCCc1ccc2cccnc2n1)NCc1cc(-c2ccc(F)c(Cl)c2)no1 |
| 75 nM | 0.28 nmol/min/mg | O=C(Cc1ccc(-c2ccc3cccnc3n2)cc1)NCc1ccc(-c2ccc(F)c(C(F)(F)F)c2)cc1 |
| 41 nM | 0.34 nmol/min/mg | O=C(CCCc1ccc2cccnc2n1)NCc1ccc(-c2cccc(C(F)(F)F)c2)cc1F |
| 38 nM | 0.2 nmol/min/mg | O=C(CCCc1ccc2cccnc2n1)NCc1ccc(-c2ccc(F)c(Cl)c2)cc1 |
| 34 nM | 0.2 nmol/min/mg | O=C(NCc1ccc(-c2ccc(F)c(C(F)(F)F)c2)cc1)C(O)(c1ccc(-c2ccc3cccnc3n2)cc1)C(F)(F)F (centres undefined) |
| 31 nM | 0.84 nmol/min/mg | O=C(Cc1ccc(-c2ccc3cccnc3n2)cc1)NCc1ccc(-c2ccc(F)c(Cl)c2)cc1 |
| 22 nM | 0.1 nmol/min/mg | O=C(CCCc1ccc2cccnc2n1)NCc1ccc(-c2ccc(F)c(C(F)(F)F)c2)cc1 |
| 19 nM | 0.14 nmol/min/mg | C[C@H](NC(=O)C(F)(F)c1ccc(-c2ccc3cccnc3n2)cc1)c1ccc(-c2ccc(F)c(C(F)(F)F)c2)cc1 |
| 17 nM | 0.28 nmol/min/mg | CC(C)(C(=O)NCc1ccc(-c2ccc(F)c(C(F)(F)F)c2)cc1)c1ccc(-c2ccc3cccnc3n2)cc1 |
| 16 nM | 0.17 nmol/min/mg | C[C@H](NC(=O)C(O)(c1ccc(-c2ccc3cccnc3n2)cc1)C(F)(F)F)c1ccc(-c2ccc(F)c(C(F)(F)F)c2)cc1 (some centres undefined) |
| 16 nM | 0.25 nmol/min/mg | CC(NC(=O)CCCc1ccc2cccnc2n1)c1ccc(-c2cccc(C(F)(F)F)c2)cc1 (centres undefined) |
| 14 nM | 0.25 nmol/min/mg | C[C@H](NC(=O)C(C)(C)c1ccc(-c2ccc3cccnc3n2)cc1)c1ccc(-c2ccc(F)c(C(F)(F)F)c2)cc1 |
